Test results reported in PubChem BioAssay (NCI).
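Step 1: Grow cells in 96-well plates. Step 2: Expose to compound for 48 hours at 5 concentrations. Step 3: Interpolate endpoints linearly; if unreached, use highest concentration. TGI marks complete inhibition of growth.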

How the values were obtained:
Test in all cases: growth of human tumour cells (NCI), 48 h
[1] = system: NCI-H23 lung
[2] = system: SK-MEL-5 melanoma
[3] = system: CAKI-1 renal
[4] = system: MALME-3M melanoma
[5] = system: SK-MEL-28 melanoma
[6] = system: SNB-75 CNS
[7] = system: NCI-H460 lung
[8] = system: SR leukemia
[9] = system: HS 578T breast
[10] = system: T-47D breast

Row | Compound | TGI [1] [µM] | TGI [2] [µM] | TGI [3] [µM] | TGI [4] [µM] | TGI [5] [µM] | TGI [6] [µM] | TGI [7] [µM] | TGI [8] [µM] | TGI [9] [µM] | TGI [10] [µM]
1 | O=C1/C(=C\c2ccccc2)c2ccccc2N1/N=C\c1ccccc1 | > 100 | > 100 | > 100 | > 100 | > 100 | > 100 | > 100 | – | – | –
2 | O=S(=O)(N/N=C/c1ccc(Cl)cc1Cl)c1ccccc1 | > 100 | > 100 | > 100 | > 100 | > 100 | > 100 | – | > 100 | – | –
3 | N#CC(C(=O)CCC(=O)Nc1ccc(Cl)c(Cl)c1)c1ccc(Cl)cc1 (configuration not stated) | > 100 | > 100 | > 100 | > 100 | > 100 | > 100 | > 100 | – | – | –
4 | COC1(Cc2ccccc2)C(=O)c2ccccc2N1C(C)=O (configuration not stated) | > 100 | – | > 100 | – | > 100 | > 100 | > 100 | > 100 | – | –
5 | COC(=O)C1=C(c2ccc(Cl)cc2)C(O)N=C(NN)N1 (configuration not stated) | > 100 | > 100 | > 100 | > 100 | > 100 | – | > 100 | > 100 | – | –
6 | Clc1ccc(/C=C/c2nc(Cl)c(-c3ccc(Cl)cc3)c(Cl)n2)cc1 | > 100 | > 100 | > 100 | > 100 | > 100 | 64.5 | > 100 | – | > 100 | > 100
7 | CCSC(=O)C1(C)OC2CCCCC2C1=O (configuration not stated) | – | > 100 | > 100 | > 100 | > 100 | > 100 | > 100 | > 100 | – | –
8 | CCOC(=O)/C=C1\Oc2ccccc2C1(C)O (configuration not stated) | > 100 | > 100 | > 100 | > 100 | > 100 | > 100 | > 100 | > 100 | – | –
9 | Cc1ccc(Nc2nc(C)c(C(/C=C/c3ccc4c(c3)OCO4)=N/Nc3ccc([N+](=O)[O-])cc3[N+](=O)[O-])s2)c([N+](=O)[O-])c1 | > 100 | – | > 100 | > 100 | > 100 | > 100 | > 100 | > 100 | – | –
10 | O=c1cc(-c2ccc(O)cc2)oc2cc(O)cc(O)c12 | 46.6 | 87.2 | – | 88.3 | 59.1 | 43.7 | > 100 | > 100 | – | –
